Measurements published in US5468771A, “Cholesterol lowering compound” (Merck & Co., Inc., priority 1994, dated 1995).

Target: T1, squalene synthetase (Homo sapiens, UniProt P37268)
T1 construct: The HepG2 enzyme preparation was centrifuged at 34,000 rpm to separate the cytosol and microsomal enzymes; host or cells: HepG2 (human hepatoblastoma), resuspended 34,000 rpm pellet of sonicated cells
T1 sequence (P37268 1-417): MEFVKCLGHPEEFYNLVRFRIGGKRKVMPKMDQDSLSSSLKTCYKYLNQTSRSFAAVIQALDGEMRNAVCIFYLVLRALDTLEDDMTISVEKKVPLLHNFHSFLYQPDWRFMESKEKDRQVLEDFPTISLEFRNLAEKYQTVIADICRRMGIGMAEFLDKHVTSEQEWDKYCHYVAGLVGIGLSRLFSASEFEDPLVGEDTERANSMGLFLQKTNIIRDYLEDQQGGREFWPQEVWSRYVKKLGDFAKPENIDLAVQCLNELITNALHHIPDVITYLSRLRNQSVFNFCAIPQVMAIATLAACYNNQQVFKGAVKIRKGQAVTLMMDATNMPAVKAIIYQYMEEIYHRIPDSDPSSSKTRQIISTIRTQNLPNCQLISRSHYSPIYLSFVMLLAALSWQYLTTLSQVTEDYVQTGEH
Experiment: Squalene synthetase assay (in vitro, human HepG2 cell enzyme, 3H-farnesyl pyrophosphate substrate)
Type: biochemical
Conditions: 30° C., 20 minutes
Method: The intrinsic squalene synthetase inhibitory activity of the compound of this invention was measured by the ill vitro protocol described below:
PREPARATION OF HUMAN HepG2 cell ENZYME
1. SOURCE: HEPG2 CELL LINE(Liver, hepatoblastoma, Human) ATCC No. HB 8065
2. CELL GROWTH AND MAINTENANCE
Culture Medium: Minimum essential medium (MEM) with non-essential amino acids, sodium pyruvate, and 10% fetal bovine serum. The medium was changed twice weekly. […] The growth medium is prepared as listed below. […]
Subculture Procedure: Remove medium, wash with PBS, add fresh trypsin (0.25%)-EDTA (0.02%) with Hank's Balanced Salt solution and let flask stand for a minute and remove the trypsin solution . Incubate flask at 37° C. until cells detached. Add fresh medium, disperse and dispense cells into new flasks. Subcultivation ratio: 1:6.
PREPARATION of Delipidated Serum: Fetal calf serum(100 ml) and CAB-O-Sil (2 grams) stir overnight at 4° C. and centrifuge at 16,000 rpm for 5 hrs. […]
For each reaction, 55 μl of buffer mixture was taken with 5 μl of an inhibitor solution in MeOH and 10 μl of diluted enzyme (1 to 1536 as described in the enzyme preparation, the final protein concentration of enzyme in the assay is 1.2 μg per ml.). […] 400 μl of heptane layer was then removed into a […] and mixed with 2.5 ml of scintillation fluid and the radioactivity was determined by liquid scintillation counting. […]

SMILES: C=C(CC[C@]12O[C@H](C(=O)O)[C@@](O)(C(=O)O)[C@](C(=O)O)(O1)[C@H](OC(=O)/C=C/C(C)CC(C)C(C)O)[C@H]2O)[C@@H](OC(C)=O)C(C)Cc1ccccc1 (stereo partly drawn) [compound of this invention, (1S,3S,4S,5S,6R,7R)-1-[(4S)-acetoxy-3-methylene-5-methyl-6-phenyl]hexyl-4,6,7-trihydroxy-6-0-(4,6-dimethyl-7-hydroxy-2-octenoyl)-2,8-dioxabicyclo [3.2.1]octane-3,4,5-tricarboxylic acid]
- IC50 (3 μM 3H-farnesyl pyrophosphate, estimated, with a dose related inhibition, read-out: IC50 against squalene synthetase): ~0.091 nM
- inhibition at 0.0018 µM (tested at a concentration of 1.8 nM): 99%
